Assay results reported in patent publication US8632821B2, “Use of xenon for treating hypersensitivity to pain” (L'Air Liquide, Société Anonyme pour l'Etude et …, priority 2009, dated 2014).
“Also recorded” adds a separate entry of the source.

Tested on: male Sprague-Dawley rats
Assay: Carrageenan model of inflammatory pain, paw-pressure vocalization test (Randall-Selitto)
Format: in vivo, rat
Method: In order to show the efficacy of the gas mixture according to the invention in the prevention of post-traumatic hyperalgesia, a model of inflammatory pain was used in rats, namely male Sprague-Dawley rats, in the context of preclinical studies.
An inflammatory product, carrageenan (0.2 ml of saline solution with 1% of carrageenan), was injected subcutaneously into the sole of the hind paw of a rat.
Two xenon concentrations by volume were tested, namely: • a ternary gas mixture made up of 25% Xe+25% N2+50% O2, and • a binary gas mixture made up of 50% Xe+50% O2.
The nociceptive threshold, i.e. the pain threshold, was evaluated using the paw-pressure vocalization test (Randall-Selitto), in which increasing pressures (measured in grams) are applied to the hind paw of the rat until the rat squeaks.
More specifically, on Day 0 (D0), the inflammatory product, i.e. the carrageenan (Car), was injected into a hind paw of the rats.
The exposure of the rats to the gases by inhalation begins 1 h 45 after the injection of Car and lasts for 1 h 45. The nociceptive threshold is evaluated 1 h 30, 2 h 30, 3 h 00, 3 h 30 and 4 h 30 after the injection of Car and then once a day until a return to the basal nociceptive threshold.

## [Xe] [xenon]
50% Xe+50% O2 (FIG. 2A) versus 25% Xe+25% N2+50% O2 (FIG. 1A), inflamed paw
  analgesic effect during administration, 50% content compared with 25% content: more effective
Inhaled xenon 25% or 50% by volume, exposure 1 h 45 starting 1 h 45 after carrageenan, inflamed paw
  analgesic effect during administration (nociceptive threshold): has an analgesic effect
Xenon at 25% (25% Xe+25% N2+50% O2) inhaled 1 h 45, control air/Car 4 days, FIG. 1A
  duration of delayed hyperalgesia on the inflamed paw: 2 days
Xenon at 50% (50% Xe+50% O2) inhaled 1 h 45, FIG. 2A
  delayed hyperalgesia on the inflamed paw: totally prevents
Xenon at 50% (50% Xe+50% O2) inhaled 1 h 45, FIG. 2B
  delayed hyperalgesia on the non-inflamed paw: totally prevents; also recorded: completely prevents
